US20260159536A1, “AKR1C3-ACTIVATED DNA ALKYLATING AGENT, AND MEDICAL APPLICATION THEREOF” (ASCENTAWITS PHARMACEUTICALS, LTD., priority 2021, published 2026)
Where two headings read alike, the source gives them in different places.

What was measured:
[1] = MTD assay of AST-3424, single 30 min intravenous drip; format: in vivo, machins; details: for maximal tolerance dose: single dose; for day of test substance-related death: male
Experimental: The maximal tolerance dose in machins after a single administration of AST-3424 injection by intravenous drip for 30 minutes was evaluated.

[2] = test system: NCI-H1792; assay: AKR1C3-dependent cytotoxicity, NSCLC cell line NCI-H1792; format: cell-based; details: Homo sapiens
Experimental: (§1) The tested compound was then added. The compound was dissolved in 100% DMSO at 200 times of the desired final test concentration. When the medicament was added, the compound was further diluted to 4 times of the desired final test concentration by using the complete medium. 50 μL of aliquots of the compound with specific concentration were added to the microwells containing 150 μL of medium, and then the final medicament concentration was obtained. […] The medicament was then washed. […] After the incubation was finished, the Alamar Blue was used to analyze and quantify the living cells.

[3] = test system: HuPrime model GA6201 human gastric cancer; details: for Tumor volume: AST-3424 5 mg/kg i.v.
Experimental: The test was divided into groups of the test drug Isocyclophosphamide 60 mg/kg group, the test drug AST-3424 5 mg/kg group, the test drug A compound 2.5 mg/kg and 5 mg/kg groups, and normal saline (pH 7.0-7.6) vehicle control group, a total of 5 groups, with 5 mice per group.
In the above dosing regimen, Isocyclophosphamide was designed based on the best dosing regimen with maximum safe dosage as recited in the document (Jessica D. Sun, Qian Liu, Dharmendra Ahluwalia, Damien J. Ferraro, Yan Wang, Don Jung, Mark D. Matteucci, and Charles P. Hart. Comparison of hypoxia-activated prodrug evofosfamide (TH-302) and ifosfamide in preclinical non-small cell lung cancer models [J]. Cancer Biology & Therapy, 2016, 17(4): 371-380).

[4] = test system: NCI-H2228; assay: AKR1C3-dependent cytotoxicity, NSCLC cell line NCI-H2228; format: cell-based; details: Homo sapiens
Experimental: as §1

[5] = test system: HuPrime model LI6664 human liver cancer; assay: In vivo pharmacodynamics, liver cancer LI6664 PDX model; parameters: species or system BALB/c nude mice; details: for Relative tumor volume (x ± S) / Tumor volume (x ± S): mean ± standard error; for Tumor volume (x ± S): in mm³ (unit assumed)
Experimental: Experiment Instruction: BALB/c nude mice were subcutaneously inoculated with HuPrime® model LI6664 tumor blocks to establish a subcutaneous transplantation tumor model of human liver cancer. […] Among them, 7.5% anhydrous ethanol+7.5% polyoxyethylene (35) castor oil+85% glucose injection D5W (pH 7.4) vehicle control group was administered by tail vein once a week for 3 consecutive weeks; test drug AST-3424 0.3 mg/kg and 1 mg/kg groups were administered by tail vein injection once a day for 5 consecutive days, followed by 2 days off, followed by 2 weeks off, and then continuously administered for 5 consecutive days; the test drug AST-3424 1.25 mg/kg group was administered by tail vein injection once a week for 2 consecutive weeks, followed by one week off, and then continuously administered for 2 consecutive weeks, Compound A 0.5 mg/kg, 1.5 mg/kg, and 4.5 mg/kg groups were administered by tail vein injection once a week for three consecutive weeks, followed by 1 week off, and then administered for three consecutive weeks. […] The efficacy was evaluated according to the relative tumor inhibition rate TGI (%), and the safety was evaluated according to the change in body weight and the death of the animals.

[6] = AST-3424 5 mg/kg i.v. QWx2, Day 38

C[C@@H](OP(=O)(N1CC1)N1CC1)c1ccc([N+](=O)[O-])c(Oc2cccc(C(=O)N(C)C)c2)c1 [AST-3424]
maximal tolerance dose ([1]; female machins): 1.5 mg/kg | clinical observation ([1]; female monkeys, 1.5 mg/kg): weight loss, decreased food consumption, diarrhoea and vomiting | maximal tolerance dose ([1]; male machins): 0.5 mg/kg | day of test substance-related death ([1]; 1.0 mg/kg): 16 days | day of test substance-related death ([1]; 1.5 mg/kg): 8 days | doses at which death of male monkeys was observed ([1]; single intravenous drip 30 minutes): ≥ 1.0 mg/kg | IC50 [2]: 4.5 nM | Relative tumor volume (x ± S) [3, 6]: 0.11 ± 0.07 | T/C (%) [3, 6]: 1.21% | TGI (%) [3, 6]: 98.79% | Tumor volume (x ± S) [3, 6]: 12.65 ± 7.91 | Tumor volume ([3]; 0 day): 94.19 mm^3 | Tumor volume ([3]; 3 days): 114.98 mm^3 | Tumor volume ([3]; 7 days): 84.33 mm^3 | Tumor volume ([3]; 10 days): 77.04 mm^3 | Tumor volume ([3]; 14 days): 63.59 mm^3 | Tumor volume ([3]; 17 days): 52.08 mm^3 | Tumor volume ([3]; 21 days): 45.81 mm^3 | Tumor volume ([3]; 24 days): 40.55 mm^3 | Tumor volume ([3]; 28 days): 30.28 mm^3 | Tumor volume ([3]; 31 days): 23.24 mm^3 | Tumor volume ([3]; 35 days): 18.55 mm^3 | Tumor volume ([3]; 38 days): 12.65 mm^3 | Tumor volume ([3]; 42 days): 13.42 mm^3 | Tumor volume ([3]; 45 days): 10.82 mm^3 | Tumor volume ([3]; 49 days): 8.15 mm^3 | body weight change / toxic effects ([3]; GA6201 model, tested doses): no toxic effects | IC50 [4]: 0.21 nM | relative tumor inhibition rate TGI (%) ([5]; 0.3 mg/kg i.v. QDx5, 2 days off, 2 weeks off, QDx5, Day 28): 45.85% | relative tumor inhibition rate TGI (%) ([5]; 1 mg/kg i.v. QDx5, 2 days off, 2 weeks off, QDx5, Day 28): 65.05% | relative tumor inhibition rate TGI (%) ([5]; 1.25 mg/kg i.v. QWx2, 1 week off, QWx2, Day 28): 52.42% | T/C (%) ([5]; AST-3424 0.3 mg/kg, Day 28): 54.15% | Relative tumor volume (x ± S) ([5]; AST-3424 0.3 mg/kg, Day 28): 6.99 ± 1.31 | Tumor volume (x ± S) ([5]; AST-3424 0.3 mg/kg, Day 28): 746.71 ± 130.55 | T/C (%) ([5]; AST-3424 1 mg/kg, Day 28): 34.95% | Relative tumor volume (x ± S) ([5]; AST-3424 1 mg/kg, Day 28): 4.51 ± 1.21 | Tumor volume (x ± S) ([5]; AST-3424 1 mg/kg, Day 28): 463.09 ± 99.32 | T/C (%) ([5]; AST-3424 1.25 mg/kg, Day 28): 47.58% | Relative tumor volume (x ± S) ([5]; AST-3424 1.25 mg/kg, Day 28): 6.14 ± 0.94 | Tumor volume (x ± S) ([5]; AST-3424 1.25 mg/kg, Day 28): 687.95 ± 147.16 | Size of tumor volume ([5]; Group3, AST-3424 0.3 mg/kg, Day 0): 108.20 mm^3 | Size of tumor volume ([5]; Group3, AST-3424 0.3 mg/kg, Day 4): 162.32 mm^3 | Size of tumor volume ([5]; Group3, AST-3424 0.3 mg/kg, Day 7): 177.51 mm^3 | Size of tumor volume ([5]; Group3, AST-3424 0.3 mg/kg, Day 11): 208.59 mm^3 | Size of tumor volume ([5]; Group3, AST-3424 0.3 mg/kg, Day 14): 306.95 mm^3 | Size of tumor volume ([5]; Group3, AST-3424 0.3 mg/kg, Day 18): 391.40 mm^3 | Size of tumor volume ([5]; Group3, AST-3424 0.3 mg/kg, Day 21): 499.34 mm^3 | Size of tumor volume ([5]; Group3, AST-3424 0.3 mg/kg, Day 25): 631.08 mm^3 | Size of tumor volume ([5]; Group3, AST-3424 0.3 mg/kg, Day 28): 746.71 mm^3 | Size of tumor volume ([5]; Group3, AST-3424 0.3 mg/kg, Day 32): 958.09 mm^3 | Size of tumor volume ([5]; Group3, AST-3424 0.3 mg/kg, Day 35): 1059.71 mm^3 | Size of tumor volume ([5]; Group3, AST-3424 0.3 mg/kg, Day 39): 1226.51 mm^3 | Size of tumor volume ([5]; Group3, AST-3424 0.3 mg/kg, Day 42): 1094.69 mm^3 | Size of tumor volume ([5]; Group3, AST-3424 0.3 mg/kg, Day 46): 1268.82 mm^3 | Size of tumor volume ([5]; Group3, AST-3424 0.3 mg/kg, Day 49): 1486.77 mm^3 | Size of tumor volume ([5]; Group4, AST-3424 1 mg/kg, Day 0): 107.53 mm^3 | Size of tumor volume ([5]; Group4, AST-3424 1 mg/kg, Day 4): 131.59 mm^3 | Size of tumor volume ([5]; Group4, AST-3424 1 mg/kg, Day 7): 145.23 mm^3 | Size of tumor volume ([5]; Group4, AST-3424 1 mg/kg, Day 11): 158.03 mm^3 | Size of tumor volume ([5]; Group4, AST-3424 1 mg/kg, Day 14): 233.54 mm^3 | Size of tumor volume ([5]; Group4, AST-3424 1 mg/kg, Day 18): 291.97 mm^3 | Size of tumor volume ([5]; Group4, AST-3424 1 mg/kg, Day 21): 371.35 mm^3 | Size of tumor volume ([5]; Group4, AST-3424 1 mg/kg, Day 25): 438.00 mm^3 | Size of tumor volume ([5]; Group4, AST-3424 1 mg/kg, Day 28): 463.09 mm^3 | Size of tumor volume ([5]; Group4, AST-3424 1 mg/kg, Day 32): 622.48 mm^3 | Size of tumor volume ([5]; Group4, AST-3424 1 mg/kg, Day 35): 748.13 mm^3 | Size of tumor volume ([5]; Group4, AST-3424 1 mg/kg, Day 39): 929.60 mm^3 | Size of tumor volume ([5]; Group4, AST-3424 1 mg/kg, Day 42): 1226.79 mm^3 | Size of tumor volume ([5]; Group4, AST-3424 1 mg/kg, Day 46): 1496.83 mm^3 | Size of tumor volume ([5]; Group4, AST-3424 1 mg/kg, Day 49): 1717.60 mm^3 | Size of tumor volume ([5]; Group5, AST-3424 1.25 mg/kg, Day 0): 108.46 mm^3 | Size of tumor volume ([5]; Group5, AST-3424 1.25 mg/kg, Day 4): 174.65 mm^3 | Size of tumor volume ([5]; Group5, AST-3424 1.25 mg/kg, Day 7): 210.25 mm^3 | Size of tumor volume ([5]; Group5, AST-3424 1.25 mg/kg, Day 11): 222.97 mm^3 | Size of tumor volume ([5]; Group5, AST-3424 1.25 mg/kg, Day 14): 291.02 mm^3 | Size of tumor volume ([5]; Group5, AST-3424 1.25 mg/kg, Day 18): 361.03 mm^3 | Size of tumor volume ([5]; Group5, AST-3424 1.25 mg/kg, Day 21): 467.94 mm^3 | Size of tumor volume ([5]; Group5, AST-3424 1.25 mg/kg, Day 25): 581.63 mm^3 | Size of tumor volume ([5]; Group5, AST-3424 1.25 mg/kg, Day 28): 687.95 mm^3 | Size of tumor volume ([5]; Group5, AST-3424 1.25 mg/kg, Day 32): 746.71 mm^3 | Size of tumor volume ([5]; Group5, AST-3424 1.25 mg/kg, Day 35): 871.84 mm^3 | Size of tumor volume ([5]; Group5, AST-3424 1.25 mg/kg, Day 39): 1081.64 mm^3 | Size of tumor volume ([5]; Group5, AST-3424 1.25 mg/kg, Day 42): 1307.36 mm^3 | Size of tumor volume ([5]; Group5, AST-3424 1.25 mg/kg, Day 46): 1675.14 mm^3 | Size of tumor volume ([5]; Group5, AST-3424 1.25 mg/kg, Day 49): 1923.31 mm^3 | weight loss ([5]; mouse, in vivo): no weight loss
